Measurements published in patent US7879876B2, “Sulfonamide derivatives and use thereof for the modulation of metalloproteinases” (Merck Serono SA, priority 2005, dated 2011).

Assays:
Type in all cases: biochemical
collagenase (MMP-1) = biological target: T1, collagenase (MMP-1) (Homo sapiens, UniProt P03956); experiment: MMP-1 enzyme inhibition assay (coumarin-labelled peptide substrate); conditions: for IC50: read-out: IC50 MMP1
T1 sequence (P03956 100-469): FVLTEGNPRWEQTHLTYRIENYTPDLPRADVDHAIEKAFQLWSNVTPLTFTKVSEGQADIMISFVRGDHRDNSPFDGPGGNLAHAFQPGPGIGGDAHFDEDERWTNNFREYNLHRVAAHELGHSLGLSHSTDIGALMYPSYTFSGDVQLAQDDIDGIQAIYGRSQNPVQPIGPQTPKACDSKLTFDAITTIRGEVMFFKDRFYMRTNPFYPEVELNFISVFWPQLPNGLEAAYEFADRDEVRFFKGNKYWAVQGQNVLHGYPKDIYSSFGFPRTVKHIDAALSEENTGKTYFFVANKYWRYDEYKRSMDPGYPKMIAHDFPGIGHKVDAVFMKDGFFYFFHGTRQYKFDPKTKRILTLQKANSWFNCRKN
Description: (§1) Compounds of the invention were tested to assess their activities as inhibitors of MMP-1, MMP-2, MMP-9, MMP-14, MMP-12 and TACE. MMP-9 Assay Protocol
(§2) Compounds of the invention were tested for inhibitory activity against 92 kDa gelatinase (MMP-9) in an assay using a coumarin-labeled peptide substrate, (7-methoxycoumarin-4-yl)acetyl-Pro-Leu-Gly-Leu-(3-[2,4-dinitrophenyl]-L-2,3diaminopropionyl)-Ala-Arg-NH2 (McaPLGLDpaAR) (Knight et al, FEBS Lett. 1992; 263-266).
(§3) Stock solutions were made up as follows: Assay Butter: 100 mM Tris-HCl pH 7.6 containing 100 mM NaCl, 10 mM CaCl2, and 0.05% Brij 35.
(§4) Substrate: 0.4 mM McaPLGLDpaAR (from Bachem) (0.437 mg/ml) stock solution in 100% DMSO (stored at −20° C.). Dilute to 8 μM in assay butter.
(§5) Enzyme: Recombinant human 92 kDa gelatinase (MMP-9; APMA (4-aminophenyl mercuric acetate)-activated if necessary) appropriately diluted in assay butter.
(§6) Test Compounds were prepared initially as 10 mM compound solution in 100% DMSO, diluted to 1 mM in 100% DMSO, then serially diluted 3-fold in 100% DMSO across columns 1-10 of a 96-well microtitre plate Assay concentration range, 100 μM (column 1) to 5.1 nM (column 10).
(§7) The assay was performed in a total volume of 100 μL per well in 96-well microtitre plates. Activated enzyme (20 μL) was added to the wells followed by 20 μL of assay butter. Appropriate concentrations of test compounds dissolved in 10 μL of DMSO were then added followed by 50 μL of McaPLGLDpaAR (8 μM, prepared by dilution of DMSO stock in assay butter). For each as say ten concentrations of test compound were examined in duplicate. Control wells lack either enzyme or test compound. The reactions were incubated at 37° C. for 2 hours. The fluorescence at 405 nm was measured immediately with an SLT Fluostar fluorometer (SL T Labinstruments GmbH, Grödig, Austria) using 320 nm excitation, without stopping the reaction.
(§8) The effect of the test compound was determined from the dose response curve generated by the 10 duplicate concentrations of inhibitor. The IC50 (the concentration of compound required to give a 50% decrease in enzyme activity) was obtained by fitting data to the equation, Y=a+((b−a)/(1+(c/X)^d)). (Y=inhibition achieved for a particular dose; X=the dose in nM; a=minimum y or zero % inhibition; b=maximum y or 100% inhibition; c=is the IC50; d=is the slope). The result was rounded to one significant figure.
Compounds of the invention were tested for inhibitory activity against collagenase (MMP-1) in an assay using a coumarin-labelled peptide substrate, (7-methoxycoumarin-4-yl)acetyl-Pro-Leu-Gly-Leu-(3-[2,4-dinitrophenyl]-L-2,3diaminopropionyl)-Ala-Arg-NH2 (Mca PLGLDpaAR) (Knight et al, 1992, above). The protocol for this assay was as described for the MMP-9 assay above.

human ADAM17 (TACE) = human ADAM17 (TACE) (Homo sapiens, UniProt P78536); experiment: TACE enzyme inhibition assay
human ADAM17 (TACE), sequence (P78536 215-824): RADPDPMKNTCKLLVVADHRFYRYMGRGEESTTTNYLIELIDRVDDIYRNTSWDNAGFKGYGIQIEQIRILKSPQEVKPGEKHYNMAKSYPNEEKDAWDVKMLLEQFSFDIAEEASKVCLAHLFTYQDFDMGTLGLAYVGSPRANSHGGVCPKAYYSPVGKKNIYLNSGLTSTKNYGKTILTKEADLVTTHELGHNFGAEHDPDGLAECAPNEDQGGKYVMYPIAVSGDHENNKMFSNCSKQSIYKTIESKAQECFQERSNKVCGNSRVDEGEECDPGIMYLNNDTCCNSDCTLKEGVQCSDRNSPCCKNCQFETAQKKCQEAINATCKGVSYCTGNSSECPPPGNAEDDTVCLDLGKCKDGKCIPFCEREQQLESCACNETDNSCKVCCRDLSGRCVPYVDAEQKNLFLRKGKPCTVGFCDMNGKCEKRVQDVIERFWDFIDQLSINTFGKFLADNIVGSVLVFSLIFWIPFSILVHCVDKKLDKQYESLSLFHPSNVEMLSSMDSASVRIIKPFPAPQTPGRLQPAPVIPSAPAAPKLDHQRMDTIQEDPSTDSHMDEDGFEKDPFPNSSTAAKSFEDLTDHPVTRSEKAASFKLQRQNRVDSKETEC
Description: as §1
Compounds of the invention can be tested for inhibitory activity against human ADAM17 in an assay using human Mca-(endo-1a-Dap(Dnp)-TNF-alpha(−5 to +6)amide as substrate (FEBS Letters, 2000, 275-279).
Stock solutions are prepared as followed: • Assay Buffer: 20 mM Hepes pH 7.5 (Fluka) containing 0.05% Brij 35 (Fluka) • Substrate: 6.1 mM human Mca-(endo-1a-Dap(Dnp)-TNF-alpha(−5 to +6)amide (Bachem) stock solution in 100% DMSO (stored at −20° C.); diluted to 5 μM in assay buffer. • Enzyme: Recombinant human ADAM17, appropriately diluted in assay buffer (1.5 μg/ml).
Test Compounds are prepared initially as 10 mM compound solution in 100% DMSO, diluted to 1 mM in 100% DMSO, then serially diluted 3-fold in 100% DMSO across a 96-well microtitre plate. Assay concentration range is typically between 100 μM to 0.01 nM. The assay is performed in a total volume of 100 μL per well in 96-well microtitre plates. Appropriate concentrations of test compounds dissolved in 10 μL of DMSO are added to the wells, followed by substrate solution (50 μL, 5 μM prepared by dilution of DMSO stock in assay buffer) and enzyme solution (40 μL). For each as say ten concentrations of test compound are examined in […]. Control wells lack either enzyme or test compound. The reactions are incubated at room temperature for 1.5 hours. The fluorescence at 405 nm is measured immediately with a fluorometer using 355 nm excitation, without stopping the reaction.
as §8, with “is” for “was”

[1] = biological target: 92 kDa gelatinase (MMP-9) (Homo sapiens, UniProt P14780); experiment: MMP-9 enzyme inhibition assay (coumarin-labeled peptide substrate); conditions: for IC50: read-out: IC50 MMP9
92 kDa gelatinase (MMP-9), sequence (P14780 107-707 limits assumed): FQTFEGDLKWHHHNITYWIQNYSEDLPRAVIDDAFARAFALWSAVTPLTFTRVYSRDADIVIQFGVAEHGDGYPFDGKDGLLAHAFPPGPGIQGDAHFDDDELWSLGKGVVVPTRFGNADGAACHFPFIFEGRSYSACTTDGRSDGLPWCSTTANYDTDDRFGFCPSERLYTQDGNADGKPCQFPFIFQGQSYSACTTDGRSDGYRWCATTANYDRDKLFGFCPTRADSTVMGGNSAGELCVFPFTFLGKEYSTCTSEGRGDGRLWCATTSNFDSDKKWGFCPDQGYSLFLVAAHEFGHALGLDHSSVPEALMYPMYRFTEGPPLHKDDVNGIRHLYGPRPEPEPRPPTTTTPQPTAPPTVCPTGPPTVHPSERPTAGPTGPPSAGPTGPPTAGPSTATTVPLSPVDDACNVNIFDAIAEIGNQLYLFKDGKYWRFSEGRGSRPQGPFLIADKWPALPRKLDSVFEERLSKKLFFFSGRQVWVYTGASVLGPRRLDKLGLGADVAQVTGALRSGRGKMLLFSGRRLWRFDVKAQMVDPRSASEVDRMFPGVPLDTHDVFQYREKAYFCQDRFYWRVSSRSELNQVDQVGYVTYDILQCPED
Description: as §1, §2, §3, §4, §5, §6, §7, §8

[2] = read-out: percentage inhibition MMP1

SMILES | inhibition at 5 µM (collagenase (MMP-1); [2]) [%] | IC50 (human ADAM17 (TACE)) [nM] | inhibition at 5 µM ([1]; @ 5 μM, read-out: percentage inhibition MMP9) [%] | IC50 (collagenase (MMP-1)) [nM] | IC50 [1] [nM] | inhibition at 0.1 µM (collagenase (MMP-1); @ 0.1 μM, read-out: percentage inhibition MMP1) [%]
CC(C)(C)OC(=O)N1CCC[C@@H]1[C@@H](CS(=O)(=O)N1CCc2cc(Cl)c(Cl)cc2C1)N(O)C=O (racemic) [Example 44, tert-butyl (2RS)-2-{(1SR)-2-[(6,7-dichloro-3,4-dihydro-isoquinolin-2(1H)-yl)sulfonyl]-1-[formyl(hydroxy)amino]ethyl}pyrrolidine-1-carboxylate] | 9 | 371 | 21 | – | – | –
O=CN(O)C(CS(=O)(=O)N1CCc2ccccc2C1)C1CC1 (stereo not shown) [Example 4, N-[1-cyclopropyl-2-(3,4-dihydroisoquinolin-2(1H)-ylsulfonyl)ethyl]-N-hydroxyformamide] | 19 | 114 | – | – | > 5000 | –
O=CN(O)C(CCc1ccccc1)CS(=O)(=O)N1Cc2ccccc2C1 (stereo not shown) [Example 6, N-{1-[(1,3-dihydro-2H-isoindol-2-ylsulfonyl)methyl]-3-phenylpropyl}-N-hydroxyformamide] | – | 280 | – | > 5000 | 877 | –
O=CN(O)C(CS(=O)(=O)N1CCc2ccccc2C1)c1cncnc1 (stereo not shown) [Example 9, N-[2-(3,4-dihydroisoquinolin-2(1H)-ylsulfonyl)-1-pyrimidin-5-ylethyl]-N-hydroxyformamide] | 29 | 128 | – | – | > 5000 | –
COc1cc2c(cc1OC)CN(S(=O)(=O)CC(CCc1ccccc1)N(O)C=O)CC2 (stereo not shown) [Example 12, N-(1-{[(6,7-dimethoxy-3,4-dihydroisoquinolin-2(1H)-yl)sulfonyl]methyl}-3-phenylpropyl)-N-hydroxyformamide] | 0 | 1220 | – | – | > 5000 | –
COc1cc2c(cc1OC)CN(S(=O)(=O)CC([C@H]1COC(C)(C)O1)N(O)C=O)CC2 (stereo partly drawn) [Example 14, N-{2-[(6,7-dimethoxy-3,4-dihydroisoquinolin-2(1H)-yl)sulfonyl]-1-[(4S)-2,2-dimethyl-1,3-dioxolan-4-yl]ethyl}-N-hydroxyformamide] | 0 | 620 | – | – | > 5000 | –
CC1(C)OC[C@H](C(CS(=O)(=O)N2Cc3ccccc3C2)N(O)C=O)O1 (stereo partly drawn) [Example 16, N-{2-(1,3-dihydro-2H-isoindol-2-ylsulfonyl)-1-[(4S)-2,2-dimethyl-1,3-dioxolan-4-yl]ethyl}-N-hydroxyformamide] | 74 | 311 | – | – | > 5000 | 5
CC(C)c1ccc2c(c1)CCN(S(=O)(=O)CC([C@H]1COC(C)(C)O1)N(O)C=O)C2 (stereo partly drawn) [Example 18, N-{1-[(4S)-2,2-dimethyl-1,3-dioxolan-4-yl]-2-[(6-isopropyl-3,4-dihydroisoquinolin-2(1H)-yl)sulfonyl]ethyl}-N-hydroxyformamide] | 9 | 640 | – | – | > 5000 | –
O=CN(O)[C@@H](CS(=O)(=O)N1CCc2ccc(Cl)cc2C1)[C@H]1CCCO1 [Example 22, N-{(1R)-2-[(7-chloro-3,4-dihydroisoquinolin-2(1H)-yl)sulfonyl]-1-[(2R)-tetrahydrofuran-2-yl]ethyl}-N-hydroxyformamide] | 0 | 389 | – | – | > 5000 | –

Now those with a lower IC50 (human ADAM17 (TACE)), led by results:

inhibition at 5 µM (collagenase (MMP-1); [2]) [%] | IC50 (human ADAM17 (TACE)) [nM] | inhibition at 5 µM ([1]; @ 5 μM, read-out: percentage inhibition MMP9) [%] | IC50 (collagenase (MMP-1)) [nM] | IC50 [1] [nM] | inhibition at 0.1 µM (collagenase (MMP-1); @ 0.1 μM, read-out: percentage inhibition MMP1) [%] | SMILES
– | 67 | – | > 5000 | > 5000 | – | O=CN(O)C(CCc1ccccc1)CS(=O)(=O)N1CCc2ccccc2C1 (stereo not shown) [Example 1, N-{1-[(3,4-dihydroisoquinolin-2(1H)-ylsulfonyl)methyl]-3-phenylpropyl}-N-hydroxyformamide]
– | 33 | – | > 5000 | > 5000 | – | CC1(C)OC[C@H](C(CS(=O)(=O)N2CCc3ccccc3C2)N(O)C=O)O1 (stereo partly drawn) [Example 2, N-{2-(3,4-dihydroisoquinolin-2(1H)-ylsulfonyl)-1-[(4S)-2,2-dimethyl-1,3-dioxolan-4-yl]ethyl}-N-hydroxyformamide]
31 | 28 | – | – | > 5000 | – | CCCCCC(CS(=O)(=O)N1CCc2ccccc2C1)N(O)C=O (stereo not shown) [Example 3, N-{1-[(3,4-dihydroisoquinolin-2(1H)-ylsulfonyl)methyl]hexyl}-N-hydroxyformamide]
8 | 67 | – | – | > 5000 | – | O=CN(O)C(CS(=O)(=O)N1CCc2ccccc2C1)c1cccnc1 (stereo not shown) [Example 10, N-[2-(3,4-dihydroisoquinolin-2(1H)-ylsulfonyl)-1-pyridin-3-ylethyl]-N-hydroxyformamide]
16 | 40 | – | – | > 5000 | – | COc1ccc(C(CS(=O)(=O)N2CCc3ccccc3C2)N(O)C=O)cn1 (stereo not shown) [Example 13, N-[2-(3,4-dihydroisoquinolin-2(1H)-ylsulfonyl)-1-(6-methoxypyridin-3-yl)ethyl]-N-hydroxyformamide]
45 | 23 | – | – | > 5000 | – | CC1(C)OC[C@H](C(CS(=O)(=O)N2CCc3ccc(Cl)cc3C2)N(O)C=O)O1 (stereo partly drawn) [Example 19, N-{2-[(7-chloro-3,4-dihydroisoquinolin-2(1H)-yl)sulfonyl]-1-[(4S)-2,2-dimethyl-1,3-dioxolan-4-yl]ethyl}-N-hydroxyformamide]
20 | 56 | – | – | > 5000 | – | O=CN(O)C(CS(=O)(=O)N1CCc2ccc(Cl)cc2C1)C1CCCC1 (stereo not shown) [Example 21, N-{2-[(7-chloro-3,4-dihydroisoquinolin-2(1H)-yl)sulfonyl]-1-cyclopentylethyl}-N-hydroxyformamide]
52 | 13 | – | – | > 5000 | – | O=CN(O)[C@H](CS(=O)(=O)N1CCc2ccc(Cl)cc2C1)[C@H]1CCCO1 [Example 23, N-{(1S)-2-[(7-chloro-3,4-dihydroisoquinolin-2(1H)-yl)sulfonyl]-1-[(2R)-tetrahydrofuran-2-yl]ethyl}-N-hydroxyformamide]
